Assay results as given in ChEMBL document CHEMBL1158525, “New heteroaryl nitrones with spin trap properties: Identification of a 4-furoxanyl derivative with excellent properties to be used in biological systems” (Bioorg Med Chem, 2010).
Active and inactive are the calls of the source.

Assays:
Assay type in all cases: functional
Details in all cases: Microsome
Trypanosoma cruzi [1] = test: Antioxidant activity in Trypanosoma cruzi microsomes assessed as inhibition of PtCl2(NF)-induced free radicals generation by EPR-based spin trap technique
Trypanosoma cruzi [2] = test: Antioxidant activity in Trypanosoma cruzi microsomes assessed as inhibition of TBfx1-induced free radicals generation by EPR-based spin trap technique
Trypanosoma cruzi [3] = test: Antioxidant activity in Trypanosoma cruzi microsomes assessed as inhibition of NF-induced free radicals generation by EPR-based spin trap technique
Trypanosoma cruzi [4] = test: Antioxidant activity in Trypanosoma cruzi microsomes assessed as inhibition of TBfx2-induced free radicals generation by EPR-based spin trap technique

Measured: Activity

Cc1c(/C=[N+](\[O-])C(C)(C)C)no[n+]1[O-]
active: all assays above
